In paper PMC13379236 (Cell reports, 2026):
“Also recorded” adds a separate entry of the source.

What was measured:
NLRP1 inflammasome = assay type: cell-based, human
ZYG11B [1] = assay type: cell-based, human
innate immune response = settings: cited from earlier work
ZYG11B [2] = settings: cited from earlier work

## ORF10: SARS-CoV-2 protein ORF10, overexpressed
NLRP1 inflammasome
  effect of ORF10 on inflammasome activation with NLRP1 E133K: no decrease in inflammasome activation
  inhibition of HRV 3Cpro-mediated activation of wild-type NLRP1: could inhibit HRV 3Cpro-mediated activation of NLRP1
ZYG11B [1]
  ORF10 binding to ZYG11B E644K: decrease the binding
  ORF10 binding to ZYG11B K515E: substantially enhance binding
  ORF10 binding to ZYG11B R466A: minimal effect; also recorded: did not strongly affect ORF10 binding
Innate immune response
  effect on innate immune response: can suppress the innate immune response
ZYG11B [2]
  interaction with ZYG11B: interacts with ZYG11B
